Measurements as given in patent US20250172566A1, “SACCHARIDE SENSING SYSTEMS” (CARBOMETRICS LIMITED, priority 2022, published 2025).

Assay: Fluorescent solution phase glucose responsive assay (pH 7.4, 298 K)
Details: Ex 470 nm
Procedure: Fluorescence spectroscopy was performed on either a HORIBA Duetta or BMG Labtech CLARIOstar plus plate reader. Emission spectra were obtained using the appropriate excitation wavelength and at a temperature of either 298 or 310 K and at pH 7.4 unless otherwise stated. Data collection and analysis were performed using EzSpec software by HORIBA or CLARIOstar MARS software by BMG Labtech. Further analysis and processing were performed in Microsoft Excel.
A solution of GBM and FIM at the required concentrations were created in the appropriate media. The emission spectrum of the assay was then acquired by exciting at the designated excitation wavelength to obtain the baseline emission intensity for the assay. Aliquots of 2 M D-glucose (in the same media) were then added to give the required final glucose concentrations (e.g. 15 μL of 2 M D-glucose in 3 mL gives a final D-glucose concentration of 10 mM) and the assay allowed to reach equilibration. The emission spectra were collected after each addition of D-glucose and compared to the original baseline emission, monitoring at the typical emission maximum (Emmax), and the percentage increase or decrease recorded. Emission spectra acquired on either a Horiba Duetta fluorometer or Clariostar plus plate reader.
The glucose responsive fluorescence emission for different combinations of glucose binding molecules (GBM) and fluorescent inhibitor molecules (FIM) at various concentrations and in various media was tested as described above. All results obtained at pH 7.4 and 298 K unless otherwise stated.
All results obtained at pH 7.4 and 298 K unless otherwise stated.
Table 4 provides the composition of the assay media used as the code assigned to each media as used in Tables 1 to 3.

CC(C)(C)OC(=O)N[C@@H](Cc1cn(CCCC[C@@H](C(=O)NCC(CO[C@@H]2O[C@H](CO)[C@@H](O)[C@H](O)[C@H]2O)c2ccccc2)[N+](C)(C)C)nn1)C(=O)NCCOCCOCCn1cc(CNC(=O)c2ccc3c(c2)C(=O)OC32c3ccc(N)c(S(=O)(=O)[O-])c3Oc3c2ccc(N)c3S(=O)(=O)O)nn1 (stereo partly drawn) [FIM50]
Change in Emmax for FIM at a particular D-glucose concentration (5 mM D-glucose, GBM7 50 μM, FIM 2 μM, medium B, Emmax 520 nm): 140% | Change in Emmax for FIM at a particular D-glucose concentration (5 mM D-glucose, GBM15 100 μM, FIM 2 μM, medium B, Emmax 520 nm): 50% | Change in Emmax for FIM at a particular D-glucose concentration (10 mM D-glucose, GBM7 50 μM, FIM 2 μM, medium B, Emmax 520 nm): 180% | Change in Emmax for FIM at a particular D-glucose concentration (10 mM D-glucose, GBM15 100 μM, FIM 2 μM, medium B, Emmax 520 nm): 70% | Change in Emmax for FIM at a particular D-glucose concentration (20 mM D-glucose, GBM7 50 μM, FIM 2 μM, medium B, Emmax 520 nm): 200% | Change in Emmax for FIM at a particular D-glucose concentration (20 mM D-glucose, GBM15 100 μM, FIM 2 μM, medium B, Emmax 520 nm): 90%

C[N+](C)(C)[C@@H](CCCCNC(=O)[C@@H](N)CCCCn1cc(CNC(=O)c2ccc3c(c2)C2(OC3=O)c3ccc(N)c(S(=O)(=O)O)c3Oc3c2ccc(N)c3S(=O)(=O)O)nn1)C(=O)Nc1ccc(CCO[C@@H]2O[C@H](CO)[C@@H](O)[C@H](O)[C@H]2O)cc1 [FIM39]
Change in Emmax for FIM at a particular D-glucose concentration (5 mM D-glucose, GBM7 30 μM, FIM 1 μM, medium B, Emmax 520 nm): 95% | Change in Emmax for FIM at a particular D-glucose concentration (10 mM D-glucose, GBM7 30 μM, FIM 1 μM, medium B, Emmax 520 nm): 115% | Change in Emmax for FIM at a particular D-glucose concentration (20 mM D-glucose, GBM7 30 μM, FIM 1 μM, medium B, Emmax 520 nm): 120%

O=C(CNC(=O)[C@H](Cc1cn(CCOCCOCCOCCOc2ccc(CCO[C@@H]3O[C@H](CO)[C@@H](O)[C@H](O)[C@H]3O)cc2)nn1)NC(=O)CCCC[C@@H]1SC[C@@H]2NCN[C@@H]21)Nc1ccc2c(c1)C(=O)OC21c2ccc(O)cc2Oc2cc(O)ccc21 [FIM35]
Change in Emmax for FIM at a particular D-glucose concentration (20 mM D-glucose, GBM29 50 μM, FIM 1 μM, medium B, Emmax 520 nm): 60% | Change in Emmax for FIM at a particular D-glucose concentration (20 mM D-glucose, GBM29 50 μM, FIM 1 μM, medium B, Emmax 520 nm, separate GBM and FIM components mixed with 0.25 molar equivalents of streptavidin tetramer prior to formulation of assay): 40%

Cc1ccc2n1[B-](F)(F)[N+]1=C(/C=C/c3ccc(C(=O)O)cc3)C=CC1=C2c1ccccc1OCc1cn(CCOCCOCCOCCO[C@@H]2O[C@H](CO)[C@@H](O)[C@H](O)[C@H]2O)nn1 [FIM31]
Change in Emmax for FIM at a particular D-glucose concentration (20 mM D-glucose, GBM22 5 μM, FIM 1 μM, medium A, Emmax 590 nm): 90%

CC(C)(C)OC(=O)N[C@@H](Cc1cn(CCCC[C@@H](C(=O)Nc2ccc(CCO[C@@H]3O[C@H](CO)[C@@H](O)[C@H](O)[C@H]3O)cc2)[N+](C)(C)C)nn1)C(=O)NCCOCCOCCOCCn1cc(CNC(=O)c2ccc3c(c2)C(=O)OC32c3ccc(O)cc3Oc3cc(O)ccc32)nn1 [FIM32]
Change in Emmax for FIM at a particular D-glucose concentration (5 mM D-glucose, GBM15 10 μM, FIM 1 μM, medium B, Emmax 520 nm): 170% | Change in Emmax for FIM at a particular D-glucose concentration (5 mM D-glucose, GBM15 50 μM, FIM 0.5 μM, medium B, Emmax 520 nm): 140% | Change in Emmax for FIM at a particular D-glucose concentration (5 mM D-glucose, GBM15 50 μM, FIM 5 μM, medium B, Emmax 520 nm): 110% | Change in Emmax for FIM at a particular D-glucose concentration (5 mM D-glucose, GBM15 50 μM, FIM 10 μM, medium B, Emmax 520 nm): 110% | Change in Emmax for FIM at a particular D-glucose concentration (5 mM D-glucose, GBM15 100 μM, FIM 1 μM, medium B, Emmax 520 nm): 95% | Change in Emmax for FIM at a particular D-glucose concentration (5 mM D-glucose, GBM15 200 μM, FIM 2 μM, medium B, Emmax 520 nm): 85% | Change in Emmax for FIM at a particular D-glucose concentration (5 mM D-glucose, GBM15 200 μM, FIM 5 μM, medium B, Emmax 520 nm): 50% | Change in Emmax for FIM at a particular D-glucose concentration (5 mM D-glucose, GBM15 200 μM, FIM 10 μM, medium B, Emmax 520 nm): 50% | Change in Emmax for FIM at a particular D-glucose concentration (10 mM D-glucose, GBM15 10 μM, FIM 1 μM, medium B, Emmax 520 nm): 190% | Change in Emmax for FIM at a particular D-glucose concentration (10 mM D-glucose, GBM15 50 μM, FIM 0.5 μM, medium B, Emmax 520 nm): 195% | Change in Emmax for FIM at a particular D-glucose concentration (10 mM D-glucose, GBM15 50 μM, FIM 5 μM, medium B, Emmax 520 nm): 155% | Change in Emmax for FIM at a particular D-glucose concentration (10 mM D-glucose, GBM15 50 μM, FIM 10 μM, medium B, Emmax 520 nm): 145% | Change in Emmax for FIM at a particular D-glucose concentration (10 mM D-glucose, GBM15 100 μM, FIM 1 μM, medium B, Emmax 520 nm): 135% | Change in Emmax for FIM at a particular D-glucose concentration (10 mM D-glucose, GBM15 200 μM, FIM 2 μM, medium B, Emmax 520 nm): 115% | Change in Emmax for FIM at a particular D-glucose concentration (10 mM D-glucose, GBM15 200 μM, FIM 5 μM, medium B, Emmax 520 nm): 85% | Change in Emmax for FIM at a particular D-glucose concentration (10 mM D-glucose, GBM15 200 μM, FIM 10 μM, medium B, Emmax 520 nm): 85% | Change in Emmax for FIM at a particular D-glucose concentration (20 mM D-glucose, GBM15 10 μM, FIM 1 μM, medium B, Emmax 520 nm): 200% | Change in Emmax for FIM at a particular D-glucose concentration (20 mM D-glucose, GBM15 50 μM, FIM 0.5 μM, medium B, Emmax 520 nm): 240% | Change in Emmax for FIM at a particular D-glucose concentration (20 mM D-glucose, GBM15 50 μM, FIM 5 μM, medium B, Emmax 520 nm): 185% | Change in Emmax for FIM at a particular D-glucose concentration (20 mM D-glucose, GBM15 50 μM, FIM 10 μM, medium B, Emmax 520 nm): 190% | Change in Emmax for FIM at a particular D-glucose concentration (20 mM D-glucose, GBM15 100 μM, FIM 1 μM, medium B, Emmax 520 nm): 160% | Change in Emmax for FIM at a particular D-glucose concentration (20 mM D-glucose, GBM15 200 μM, FIM 2 μM, medium B, Emmax 520 nm): 145% | Change in Emmax for FIM at a particular D-glucose concentration (20 mM D-glucose, GBM15 200 μM, FIM 5 μM, medium B, Emmax 520 nm): 125% | Change in Emmax for FIM at a particular D-glucose concentration (20 mM D-glucose, GBM15 200 μM, FIM 10 μM, medium B, Emmax 520 nm): 115% | Change in Emmax for FIM at a particular D-glucose concentration (40 mM D-glucose, GBM15 10 μM, FIM 1 μM, medium B, Emmax 520 nm): 220% | Change in Emmax for FIM at a particular D-glucose concentration (40 mM D-glucose, GBM15 50 μM, FIM 0.5 μM, medium B, Emmax 520 nm): 265% | Change in Emmax for FIM at a particular D-glucose concentration (40 mM D-glucose, GBM15 50 μM, FIM 5 μM, medium B, Emmax 520 nm): 205% | Change in Emmax for FIM at a particular D-glucose concentration (40 mM D-glucose, GBM15 100 μM, FIM 1 μM, medium B, Emmax 520 nm): 220% | Change in Emmax for FIM at a particular D-glucose concentration (40 mM D-glucose, GBM15 200 μM, FIM 2 μM, medium B, Emmax 520 nm): 200% | Change in Emmax for FIM at a particular D-glucose concentration (40 mM D-glucose, GBM15 200 μM, FIM 5 μM, medium B, Emmax 520 nm): 175% | Change in Emmax for FIM at a particular D-glucose concentration (40 mM D-glucose, GBM15 200 μM, FIM 10 μM, medium B, Emmax 520 nm): 130% | Change in Emmax for FIM at a particular D-glucose concentration (60 mM D-glucose, GBM15 50 μM, FIM 0.5 μM, medium B, Emmax 520 nm): 310% | Change in Emmax for FIM at a particular D-glucose concentration (60 mM D-glucose, GBM15 50 μM, FIM 5 μM, medium B, Emmax 520 nm): 225% | Change in Emmax for FIM at a particular D-glucose concentration (60 mM D-glucose, GBM15 200 μM, FIM 2 μM, medium B, Emmax 520 nm): 215% | Change in Emmax for FIM at a particular D-glucose concentration (60 mM D-glucose, GBM15 200 μM, FIM 5 μM, medium B, Emmax 520 nm): 190% | Change in Emmax for FIM at a particular D-glucose concentration (60 mM D-glucose, GBM15 200 μM, FIM 10 μM, medium B, Emmax 520 nm): 160% | Change in Emmax for FIM at a particular D-glucose concentration (80 mM D-glucose, GBM15 50 μM, FIM 5 μM, medium B, Emmax 520 nm): 235% | Change in Emmax for FIM at a particular D-glucose concentration (80 mM D-glucose, GBM15 200 μM, FIM 5 μM, medium B, Emmax 520 nm): 200% | Change in Emmax for FIM at a particular D-glucose concentration (80 mM D-glucose, GBM15 200 μM, FIM 10 μM, medium B, Emmax 520 nm): 170%
